Legend:
Experiment in all cases: Agar dilution MIC in DST agar (Ericsson and Sherris)
Type in all cases: cell-based
Escherichia coli 2018 = settings: in vitro
Text: (§1) Die antibiotische Aktivität der Testverbindungen in vitro wurde durch die Agarverdünnungsmethode nach Ericsson, H.M., und Sherris, S.C., 1971, Acta Path. Microb. Scand. Section B, Suppl. No. 217, Bd. 1-90, in DST Agara ermittelt. Die gefundenen, das Wachstum der Testorganismen noch hemmenden Minimalkonzentrationen (MIC = minimum inhibiting concentrations) werden in Mikrogramm pro Milliliter (µg/ml) für die geprüften Verbindungen in der Tabelle 1 angegeben.

Escherichia coli 205 = settings: in vitro
Text: as §1

Proteus morganii 1518 = settings: in vitro
Text: as §1

Proteus morganii 2359 = settings: in vitro
Text: as §1

[1] = test system: Pseudomonas aeruginosa K 799/61; settings: in vitro, agar dilution, DST agar
Text: as §1

[2] = test system: Salmonella Typhimurium 277; settings: in vitro
Text: as §1

[3] = test system: Staphylococcus aureus 10B; settings: in vitro
Text: as §1

[4] = test system: Staphylococcus aureus 2999; settings: in vitro
Text: as §1

Substance	MIC Esch. 2018 (Escherichia coli 2018) [µg/mL]	MIC Esch. 205 (Escherichia coli 205) [µg/mL]	MIC Prot. 1518 (Proteus morganii 1518) [µg/mL]	MIC Prot. 2359 (Proteus morganii 2359) [µg/mL]	MIC Pseu. 799 [1] [µg/mL]	MIC Salm. 277 [2] [µg/mL]	MIC Staph. 10B [3] [µg/mL]	MIC Staph. 2999 [4] [µg/mL]
4-(3-Diethylaminocarbonyl-1-piperidyl)-imidazolo[4,5-c]-rifamycin SV [Verbindung 26]	32	16	16	16	16	84	0.05	0.01
4-(4-Butylpiperazinyl)-imidazolo[4,5-c]rifamycin SV [Verbindung 33]	2	8	4	4	32	32	0.001	0.001
4-(4-Ethoxycarbonylpiperazinyl)-imidazolo[4,5-c]rifamycin SV [Verbindung 67]	16	16	16	16	32	64	0.005	0.005
4-(4-Isobutyl-2,5-dimethyl-piperazinyl)-imidazolo[4,5-c]-rifamycin SV [Verbindung 76]	8	32	8	8	32	32	0.01	0.01
4-(4-Isobutyl-perhydrct-1,4-diazepinyl)-imidazolo(4,5-c]-rifamycin SV [Verbindung 77]	8	8	8	8	8	32	0.01	0.01
4-(4-Isobutyrylpiperazinyl)-imidazolo[4,5-c]rifamycin SV [Verbindung 70]	32	32	32	32	128	128	0.02	0.02
4-(4-Isopropylcarbamoylmethylpiperazinyl)-imidazolo-[4,5-c]rifamycin SV [Verbindung 72]	32	32	32	32	64	128	0.05	0.05
4-(4-Methoxycarbonylmethylpiperazinyl)-imidazolo[4,5-c]-rifamycin SV [Verbindung 71]	32	32	32	32	128	128	0.02	0.02
4-(4-Morpholinocarbonylmethylpiperazinyl)-imidazolo-[4,5-c]rifamycin SV [Verbindung 73]	128	128	32	32	128	128	0.05	0.05
4-(4-Propyliperazinyl)-imidazolo[4,5-c]rifamycin SV [Verbindung 32]	8	8	8	8	8	32	0.001	0.001
4-(N-Benzyl-N-methylamino)-imidazolo[4,5-c]rifamycin SV [Verbindung 12]	8	8	1	8	8	32	0.001	0.001
4-[4-(1-Methyl-2-dimethylaminoethyl)-piperazinyl]-imidazolo[4,5-c]rifamycin SV [Verbindung 74]	32	128	32	32	128	128	0.5	0.5
4-[4-(2,2-Diethoxyethyl)-piperazinyl]-imidazolo[4,5-c]-rifamycin SV [Verbindung 66]	16	16	16	16	32	128	0.01	0.01
4-[4-(2,2-Dimethoxyethyl)-piperazinyl]-imidazolo- [4,5-c]rifamycin SV [Verbindung 65]	32	32	32	32	32	128	0.05	0.01
4-[4-(2-Dimethylaminoethyl)-piperazinyl-imidazolo[4,5-cl- rifamycin SV [Verbindung 69]	32	32	32	32	128	128	0.05	0.05
4-[4-(2-Ethoxyethyl)-piperazinyl]-imidazolo[4,5-c] rifamycin SV [Verbindung 64]	16	16	16	16	16	64	0.01	0.005
4-[4-(2-Methoxyethyl)-piperazinyl]-imidazolo[4,5-c]rifamycin SV [Verbindung 63]	8	16	8	8	32	32	0.01	0.01
4-[4-(2-Methyl-3-phenyl-propyl)-piperazinyl]-imidazolo- [4,5-c]rifamycin SV [Verbindung 58]		16	16	16	16	32	0.005	0.005

From EP0049683A2, “Imidazo-rifamycines, process for their preparation, pharmaceutical preparations containing them and their use” (CIBA-GEIGY AG, priority 1980, dated 1982)
